Results as given in ChEMBL document CHEMBL2321677, “Cyclic analogs of galanin and neuropeptide Y by hydrocarbon stapling” (Bioorg Med Chem, 2013).
The source made the active and inactive calls. No cut-off for these calls is given here. Bridge positions count the residues as written; N and C are the ends. Square brackets hold non-standard residues; d marks the D form. Peptide text beside a SMILES is read from it. * marks the point of attachment. X1 = CC(=O)N(C(=O)CCCCCN)[C@@H](C)C(=O)*; S5 = C=CCCC[C@](C)(N)C(=O)O; Sar = CNCC(=O)O

What was measured:
Mus musculus [1] = experiment: Anticonvulsant activity in CF1 albino mouse assessed as protection against 6Hz partial psychomotor seizure at 1 nmol/5 ul, icv after 0.5 hrs relative to control; assay type: functional, organism-based
Mus musculus [2] = experiment: Neurotoxicity against CF1 albino mouse assessed as motor impairment at 0.1 nmol/5 ul, icv after 0.5 hrs by rotarod test; assay type: toxicity, organism-based; conditions: in vivo, icv_or_intrathecal
[3] = Half life in rat serum by HPLC analysis; assay type: ADME, cell-free
[4] = molecular target: T1, Neuropeptide Y receptor type 2 (Homo sapiens, UniProt P49146); experiment: Agonist activity at human NPY2R expressed inj CHOK1 cells assessed as inhibition of forskolin-stimulated cAMP production after 30 mins by luminescence assay; assay type: functional, cell-based, CHO-K1
T1 sequence (P49146 whole entry): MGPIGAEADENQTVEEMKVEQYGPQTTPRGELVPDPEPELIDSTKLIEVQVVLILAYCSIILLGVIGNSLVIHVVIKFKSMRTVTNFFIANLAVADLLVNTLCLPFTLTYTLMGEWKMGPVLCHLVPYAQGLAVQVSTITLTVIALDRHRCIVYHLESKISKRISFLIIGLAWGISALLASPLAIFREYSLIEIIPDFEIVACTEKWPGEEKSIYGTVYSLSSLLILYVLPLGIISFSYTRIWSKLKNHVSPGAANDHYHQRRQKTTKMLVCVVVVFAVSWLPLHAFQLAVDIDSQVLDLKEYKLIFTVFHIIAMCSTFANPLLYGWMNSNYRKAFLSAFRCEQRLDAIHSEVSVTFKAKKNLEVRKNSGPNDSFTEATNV

[5] = n-octanol-water partition coefficient, log D of the compound by shake-flask method; assay type: physicochemical
Galanin receptor type 1 = molecular target: T2, Galanin receptor type 1 (Homo sapiens, UniProt P47211); experiment: Displacement of euporium-galanin from human GalR1 after 1.5 hrs by DELFIA assay
T2 sequence (P47211 whole entry): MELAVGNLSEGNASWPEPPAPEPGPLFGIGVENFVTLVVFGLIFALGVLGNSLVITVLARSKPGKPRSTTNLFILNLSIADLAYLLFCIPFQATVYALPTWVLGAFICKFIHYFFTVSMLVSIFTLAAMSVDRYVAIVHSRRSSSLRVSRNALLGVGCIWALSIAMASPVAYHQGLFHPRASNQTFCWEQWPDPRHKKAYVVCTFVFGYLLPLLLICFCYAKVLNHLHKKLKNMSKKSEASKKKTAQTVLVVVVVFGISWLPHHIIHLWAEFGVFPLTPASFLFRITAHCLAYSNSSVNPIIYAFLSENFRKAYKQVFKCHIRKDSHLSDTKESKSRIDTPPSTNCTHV

Galanin receptor type 2 = molecular target: T3, Galanin receptor type 2 (Homo sapiens, UniProt O43603); experiment: Displacement of euporium-galanin from human GalR2 after 1.5 hrs by DELFIA assay
T3 sequence (O43603 whole entry): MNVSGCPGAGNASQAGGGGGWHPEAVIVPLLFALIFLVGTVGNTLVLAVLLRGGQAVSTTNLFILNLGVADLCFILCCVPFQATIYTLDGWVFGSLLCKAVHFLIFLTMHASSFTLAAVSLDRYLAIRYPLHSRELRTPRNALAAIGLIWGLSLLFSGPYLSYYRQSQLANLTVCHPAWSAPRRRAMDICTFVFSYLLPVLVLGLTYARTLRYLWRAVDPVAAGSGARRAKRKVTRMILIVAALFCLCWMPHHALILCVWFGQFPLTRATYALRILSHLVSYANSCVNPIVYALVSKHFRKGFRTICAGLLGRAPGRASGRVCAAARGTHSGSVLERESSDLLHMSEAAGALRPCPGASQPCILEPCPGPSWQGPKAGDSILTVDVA

[6] = n-octanol-water partition coefficient, log D of the compound by HPLC capacity factor method; assay type: physicochemical

For `CC[C@H](C)[C@H](NC(=O)[C@H](Cc1ccc(O)cc1)NC(=O)[C@H](Cc1cnc[nH]1)NC(=O)[C@H](CCCNC(=N)N)NC(=O)[C@H](C)N(C(=O)CCCCCN)C(=O)[C@]1(C)CCC/C=C\CCC[C@](C)(NC(=O)[C@H](Cc2ccc(O)cc2)NC(C)=O)C(=O)N[C@@H](CCCCN)C(=O)N[C@@H](CCCCN)C(=O)N[C@@H](CCCCN)C(=O)N1)C(=O)N[C@@H](CC(N)=O)C(=O)N[C@@H](CC(C)C)C(=O)N[C@@H](CC(C)C)C(=O)N[C@H](C(=O)N[C@@H](CCCNC(=N)N)C(=O)N[C@@H](CCC(N)=O)C(=O)N[C@@H](CCCNC(=N)N)C(=O)N[C@@H](Cc1ccc(O)cc1)C(N)=O)[C@@H](C)O`, the Activity (Mus musculus [1]) was “Active”.
For `CC[C@H](C)[C@H](NC(=O)[C@H](Cc1ccc(O)cc1)NC(=O)[C@H](Cc1cnc[nH]1)NC(=O)[C@H](CCCN=C(N)N)NC(=O)[C@H](C)N(C(=O)CCCCCN)C(=O)[C@]1(C)CCC/C=C\CCC[C@](C)(NC(=O)[C@H](Cc2ccc(O)cc2)NC(C)=O)C(=O)N[C@@H](CCCCN)C(=O)N[C@@H](CCCCN)C(=O)N[C@@H](CCCCN)C(=O)N1)C(=O)N[C@@H](CC(N)=O)C(=O)N[C@@H](CC(C)C)C(=O)N[C@@H](CC(C)C)C(=O)N[C@H](C(=O)N[C@@H](CCCN=C(N)N)C(=O)N[C@@H](CCC(N)=O)C(=O)N[C@@H](CCCN=C(N)N)C(=O)N[C@@H](Cc1ccc(O)cc1)C(N)=O)[C@@H](C)O`, the Activity (Mus musculus [2]) was “Non-toxic”, the half-life [3] was 108 min and the EC50 [4] was 403 nM. It also gave a logD [5] of 0.08.
In the case of `CC[C@H](C)[C@H](NC(=O)[C@H](Cc1ccc(O)cc1)NC(=O)[C@H](Cc1c[nH]cn1)NC(=O)[C@H](CCCN=C(N)N)NC(=O)[C@H](CC(C)C)NC(=O)[C@H](C)NC(=O)[C@H](CO)NC(=O)[C@H](Cc1ccc(O)cc1)NC(=O)[C@H](Cc1ccc(O)cc1)NC(=O)[C@H](CCCN=C(N)N)NC(=O)[C@H](C)NC(=O)[C@H](CC(C)C)NC(=O)[C@H](CC(=O)O)NC(=O)[C@H](CCC(=O)O)NC(=O)[C@H](C)NC(=O)[C@@H]1CCCN1)C(=O)N[C@@H](CC(N)=O)C(=O)N[C@@H](CC(C)C)C(=O)N[C@H](C(=O)N[C@H](C(=O)N[C@@H](CCCN=C(N)N)C(=O)N[C@@H](CCC(N)=O)C(=O)N[C@@H](CCCN=C(N)N)C(=O)N[C@@H](Cc1ccc(O)cc1)C(=O)O)[C@@H](C)O)[C@@H](C)CC`, the Activity (Mus musculus [1]) is reported as “inactive” and the Activity (Mus musculus [2]) is reported as “Non-toxic”.
`CC[C@H](C)[C@H](NC(=O)[C@H](Cc1ccc(O)cc1)NC(=O)[C@H](Cc1cnc[nH]1)NC(=O)[C@H](CCCNC(=N)N)NC(=O)[C@H](C)N(C(C)=O)C(=O)CCCCCN)C(=O)N[C@@H](CC(N)=O)C(=O)N[C@@H](CC(C)C)C(=O)N[C@H](C(=O)N[C@H](C(=O)N[C@@H](CCCNC(=N)N)C(=O)N[C@@H](CCC(N)=O)C(=O)N[C@@H](CCCNC(=N)N)C(=O)N[C@@H](Cc1ccc(O)cc1)C(N)=O)[C@@H](C)O)[C@@H](C)CC` (X1-RHYINLITRQRY-NH2) showed a half-life [3] of 34.2 min and a logD [5] of -2.13.
With `CC(=O)N[C@@H](C)C(=O)N[C@@H](CCCNC(=N)N)C(=O)N[C@@H](Cc1cnc[nH]1)C(=O)N[C@@H](Cc1ccc(O)cc1)C(=O)N[C@@]1(C)CCC/C=C/CCC[C@@](C)(C(=O)N[C@@H](CCCNC(=N)N)C(=O)N[C@@H](CCC(N)=O)C(=O)N[C@@H](CCCNC(=N)N)C(=O)N[C@@H](Cc2ccc(O)cc2)C(N)=O)NC(=O)[C@H](CC(C)C)NC(=O)[C@H](CC(C)C)NC(=O)[C@H](CC(N)=O)NC1=O` (Ac-ARHY[S5]NLL[S5]RQRY-NH2; staple (E) 5-9) the Activity (Mus musculus [1]) was “Active”, the Activity (Mus musculus [2]) was “Toxic” and the half-life [3] was 162 min. For the same compound, the logD [5] was -0.71.
In the case of `CNCC(=O)N[C@@H](Cc1c[nH]c2ccccc12)C(=O)N[C@H](C(=O)N[C@@H](CC(C)C)C(=O)N[C@@H](CC(N)=O)C(=O)N[C@@H](CO)C(=O)N[C@@]1(C)CCC/C=C/CCC[C@@](C)(C(=O)NCC(=O)N2CCC[C@H]2C(=O)N[C@@H](CCCCN)C(=O)N[C@@H](CCCCN)C(=O)N[C@@H](CCCCN)C(=O)N[C@@H](CCCCN)C(N)=O)NC(=O)[C@H](CC(C)C)NC(=O)[C@H](Cc2ccc(O)cc2)NC(=O)CNC1=O)[C@@H](C)O` (H-[Sar]WTLNS[S5]GYL[S5]GPKKKK-NH2; staple (E) 7-11), the Activity (Mus musculus [1]) is reported as “Active”, the Activity (Mus musculus [2]) is reported as “Non-toxic” and the Ki (Galanin receptor type 1) is reported as 37.5 nM. It also gave a Ki (Galanin receptor type 2) of 119 nM, a half-life [3] of 384 min and a chromatographic logD [6] of 0.71.
With `CNCC(=O)N[C@@H](Cc1c[nH]c2ccccc12)C(=O)N[C@H](C(=O)N[C@@H](CC(C)C)C(=O)N[C@@H](CC(N)=O)C(=O)N[C@@H](CO)C(=O)N[C@@H](C)C(=O)NCC(=O)N[C@@H](Cc1ccc(O)cc1)C(=O)N[C@@H](CC(C)C)C(=O)N[C@@H](CC(C)C)C(=O)NCC(=O)N1CCC[C@H]1C(=O)N[C@@]1(C)CCC/C=C\CCC[C@@](C)(C(=O)N[C@@H](CCCCN)C(N)=O)NC(=O)[C@H](CCCCN)NC(=O)[C@H](CCCCN)NC(=O)[C@H](CCCCN)NC1=O)[C@@H](C)O` (H-[Sar]WTLNSAGYLLGP[S5]KKK[S5]K-NH2; staple (Z) 14-18) the Activity (Mus musculus [1]) was “Active”, the Activity (Mus musculus [2]) was “Non-toxic” and the Ki (Galanin receptor type 1) was 3.8 nM. For the same compound, the Ki (Galanin receptor type 2) was 15.6 nM, the half-life [3] was 942 min and the chromatographic logD [6] was 0.78.
With `CC(C)C[C@H](NC(=O)[C@H](CC(C)C)NC(=O)[C@H](Cc1ccc(O)cc1)NC(=O)CNC(=O)[C@H](C)NC(=O)[C@H](CO)NC(=O)[C@H](CC(N)=O)NC(=O)[C@H](CC(C)C)NC(=O)[C@@H](NC(=O)[C@H](Cc1c[nH]c2ccccc12)NC(=O)CN)[C@@H](C)O)C(=O)NCC(=O)N1CCC[C@H]1C(=O)N[C@@H](Cc1cnc[nH]1)C(=O)N[C@@H](C)C(=O)N[C@H](C(N)=O)C(C)C` the Activity (Mus musculus [1]) was “inactive”, the Activity (Mus musculus [2]) was “Non-toxic” and the half-life [3] was 7.8 min.
